Data: patent publication US12662489B2 (Sitryx Therapeutics Limited, priority 2023, dated 2026)

What was measured:
[1] = target: T1, MTHFD1 recombinant human enzyme (Homo sapiens, UniProt P11586); assay: MTHFD1 inhibition assay (NAD(P)H-Glo luminescence); conditions: MTHFD1 IC50, recombinant human enzyme 200 nM, NADP, band
T1 sequence (P11586 2-291 limits assumed): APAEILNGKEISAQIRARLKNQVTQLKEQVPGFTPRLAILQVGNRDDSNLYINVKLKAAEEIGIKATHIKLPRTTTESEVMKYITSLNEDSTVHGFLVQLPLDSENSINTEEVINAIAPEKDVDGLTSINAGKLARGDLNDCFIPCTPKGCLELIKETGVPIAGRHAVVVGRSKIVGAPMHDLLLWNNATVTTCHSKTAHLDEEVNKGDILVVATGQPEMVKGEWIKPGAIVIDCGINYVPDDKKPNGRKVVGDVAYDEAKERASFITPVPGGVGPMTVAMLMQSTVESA

[2] = target: T2, MTHFD2 recombinant human enzyme (Homo sapiens, UniProt P13995); assay: MTHFD2 inhibition assay (NAD(P)H-Glo luminescence); conditions: for MTHFD1/MTHFD2 IC50 ratio: selectivity of MTHFD2 inhibition over MTHFD1, band
T2 sequence (P13995 36-350): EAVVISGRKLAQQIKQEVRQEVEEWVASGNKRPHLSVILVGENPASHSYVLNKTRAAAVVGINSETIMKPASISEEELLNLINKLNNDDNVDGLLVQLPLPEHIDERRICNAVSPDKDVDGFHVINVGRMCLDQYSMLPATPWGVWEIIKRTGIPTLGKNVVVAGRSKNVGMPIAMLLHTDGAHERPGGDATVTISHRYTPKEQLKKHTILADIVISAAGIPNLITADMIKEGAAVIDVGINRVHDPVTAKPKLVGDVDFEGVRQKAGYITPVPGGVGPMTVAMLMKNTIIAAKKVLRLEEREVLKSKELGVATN

IC50 [1] | IC50 [2] | MTHFD1/MTHFD2 IC50 ratio [2] | Structure (SMILES)
0.1 to 1 µM | 0.01 to 0.1 µM | – | CCOc1cc(C(=O)N2CCc3c(c(=O)oc4c(C)c(N5CCN(C)[C@@H](COC)C5)cc(Cl)c34)C2)c(F)cc1C(=O)NS(=O)(=O)N1CC2(CCC2)C1 [Example 300, (R)-N-((2-azaspiro[3.3]heptan-2-yl)sulfonyl)-4-(10-chloro-8-(3-(methoxymethyl)-4-methylpiperazin-1-yl)-7-methyl-5-oxo-1,3,4,5-tetrahydro-2H-chromeno[3,4-c]pyridine-3-carbonyl)-2-ethoxy-5-fluorobenzamide]
0.01 to 0.1 µM | 0.01 to 0.1 µM | F (<3) | COC[C@H]1CN(c2cc(C)c3c4c(c(=O)oc3c2C)CN(C(=O)c2ccc(C(=O)NS(=O)(=O)N3CCCC3)c(OC3CCC(F)(F)CC3)c2)CC4)CCN1C [Example 99, (R)-2-((4,4-difluorocyclohexyl)oxy)-4-(8-(3-(methoxymethyl)-4-methylpiperazin-1-yl)-7,10-dimethyl-5-oxo-1,3,4,5-tetrahydro-2H-chromeno[3,4-c]pyridine-3-carbonyl)-N-(pyrrolidin-1-ylsulfonyl)benzamide]
0.01 to 0.1 µM | 0.01 to 0.1 µM | F (<3) | CCOc1c(C(=O)NS(=O)(=O)N2CC3CCC(C3)C2)ccc(C(=O)N2CCc3c(c(=O)oc4c(C)c(N5CCN(C)[C@@H](COC)C5)ccc34)C2)c1F [Example 237]
0.01 to 0.1 µM | 0.001 to 0.01 µM | G (^ 3 to 9.0) | COC[C@H]1CN(c2cc(C)c3c4c(c(=O)oc3c2C)CN(C(=O)c2ccc(C(=O)NS(=O)(=O)N(C)C)c(N(C)C3CCC3)c2F)CC4)CCN1C [Example 39, (R)-2-(cyclobutyl(methyl)amino)-N-(N,N-dimethylsulfamoyl)-3-fluoro-4-(8-(3-(methoxymethyl)-4-methylpiperazin-1-yl)-7,10-dimethyl-5-oxo-1,3,4,5-tetrahydro-2H-chromeno[3,4-c]pyridine-3-carbonyl)benzamide]
0.01 to 0.1 µM | 0.01 to 0.1 µM | F (<3) | COC[C@H]1CN(c2cc(C)c3c4c(c(=O)oc3c2C)CN(C(=O)c2ccc(C(=O)NS(=O)(=O)N3CCCC3)c(N3CCC[C@@H]3C)c2)CC4)CCN1C [Example 122, 4-(8-((R)-3-(methoxymethyl)-4-methylpiperazin-1-yl)-7,10-dimethyl-5-oxo-1,3,4,5-tetrahydro-2H-chromeno[3,4-c]pyridine-3-carbonyl)-2-((S)-2-methylpyrrolidin-1-yl)-N-(pyrrolidin-1-ylsulfonyl)benzamide]
0.001 to 0.01 µM | 0.01 to 0.1 µM | F (<3) | COC[C@H]1CN(c2ccc3c4c(c(=O)oc3c2Cl)CN(C(=O)c2ccc(C(=O)NS(=O)(=O)N3CCCC3)c(OC3CCCC3)c2F)CC4)CCN1C [Example 6, (R)-4-(7-chloro-8-(3-(methoxymethyl)-4-methylpiperazin-1-yl)-5-oxo-1,3,4,5-tetrahydro-2H-chromeno[3,4-c]pyridine-3-carbonyl)-2-(cyclopentyloxy)-3-fluoro-N-(pyrrolidin-1-ylsulfonyl)benzamide]
1 to 5 µM | 0.01 to 0.1 µM | H (>9.0 to 30) | COC[C@H]1CN(c2cc(Cl)c3c4c(c(=O)oc3c2C)CN(C(=O)c2cc(N(C)C)c(C(=O)NS(=O)(=O)N3CCCCC35COC5)cc2F)CC4)CCN1C [Example 271, (R)-N-((2-oxa-5-azaspiro[3.5]nonan-5-yl)sulfonyl)-4-(10-chloro-8-(3-(methoxymethyl)-4-methylpiperazin-1-yl)-7-methyl-5-oxo-1,3,4,5-tetrahydro-2H-chromeno[3,4-c]pyridine-3-carbonyl)-2-(dimethylamino)-5-fluorobenzamide]
1 to 5 µM | 0.1 to 1 µM | G (^ 3 to 9.0) | COC[C@H]1CN(c2ccc3c4c(c(=O)oc3c2C)CN(C(=O)c2cc(OC3CCCC3)c(C(=O)NS(=O)(=O)N3CCCC3)c(C(F)(F)F)c2)CC4)CCN1C [Example 107, (R)-2-(cyclopentyloxy)-4-(8-(3-(methoxymethyl)-4-methylpiperazin-1-yl)-7-methyl-5-oxo-1,3,4,5-tetrahydro-2H-chromeno[3,4-c]pyridine-3-carbonyl)-N-(pyrrolidin-1-ylsulfonyl)-6-(trifluoromethyl)benzamide]
> 5 µM | 0.1 to 1 µM | H (>9.0 to 30) | COC[C@H]1CN(c2cc(C)c3c4c(c(=O)oc3c2C)CN(C(=O)c2cc3c(c(C(=O)NS(=O)(=O)N5CCCC5)c2)OC2(CCC2)O3)CC4)CCN1C [Example 167, (R)-6-(8-(3-(methoxymethyl)-4-methylpiperazin-1-yl)-7,10-dimethyl-5-oxo-1,3,4,5-tetrahydro-2H-chromeno[3,4-c]pyridine-3-carbonyl)-N-(pyrrolidin-1-ylsulfonyl)spiro[benzo[d][1,3]dioxole-2,1′-cyclobutane]-4-carboxamide]
0.01 to 0.1 µM | 0.01 to 0.1 µM | F (<3) | COC[C@H]1CN(c2cc(C)c3c4c(c(=O)oc3c2C)CN(C(=O)c2ccc(C(=O)NS(=O)(=O)C3(C)CC3)c(OC3CCC(F)(F)CC3)c2F)CC4)CCN1C [Example 86, (R)-2-((4,4-difluorocyclohexyl)oxy)-3-fluoro-4-(8-(3-(methoxymethyl)-4-methylpiperazin-1-yl)-7,10-dimethyl-5-oxo-1,3,4,5-tetrahydro-2H-chromeno[3,4-c]pyridine-3-carbonyl)-N-((1-methylcyclopropyl)sulfonyl)benzamide]
0.1 to 1 µM | 0.01 to 0.1 µM | H (>9.0 to 30) | COC[C@H]1CN(c2cc(Cl)c3c4c(c(=O)oc3c2C)CN(C(=O)c2cc(N(C)C)c(C(=O)NS(=O)(=O)N3CCC[C@@H]3C(F)(F)F)cc2F)CC4)CCN1C [Example 278, 4-(10-chloro-8-((R)-3-(methoxymethyl)-4-methylpiperazin-1-yl)-7-methyl-5-oxo-1,3,4,5-tetrahydro-2H-chromeno[3,4-c]pyridine-3-carbonyl)-2-(dimethylamino)-5-fluoro-N-(((R)-2-(trifluoromethyl)pyrrolidin-1-yl)sulfonyl)benzamide]

Structure (SMILES) | IC50 [1] | IC50 [2] | MTHFD1/MTHFD2 IC50 ratio [2]
COC[C@H]1CN(c2cc(C)c3c4c(c(=O)oc3c2C)CN(C(=O)c2ccc(C(=O)NS(=O)(=O)N(C)C)c(N3C5CCC3CC5)c2F)CC4)CCN1C [Example 74, (R)-2-(7-azabicyclo[2.2.1]heptan-7-yl)-N-(N,N-dimethylsulfamoyl)-3-fluoro-4-(8-(3-(methoxymethyl)-4-methylpiperazin-1-yl)-7,10-dimethyl-5-oxo-1,3,4,5-tetrahydro-2H-chromeno[3,4-c]pyridine-3-carbonyl)benzamide] | 0.001 to 0.01 µM | 0.001 to 0.01 µM | F (<3)
Cc1c(N2CCN3CCOC[C@H]3C2)ccc2c3c(c(=O)oc12)CN(C(=O)c1ccc(C(=O)NS(=O)(=O)N2CCCC2)c(OC2CCC2)c1)CC3 [Example 19, (R)-2-cyclobutoxy-4-(8-(hexahydropyrazino[2,1-c][1,4]oxazin-8(1H)-yl)-7-methyl-5-oxo-1,3,4,5-tetrahydro-2H-chromeno[3,4-c]pyridine-3-carbonyl)-N-(pyrrolidin-1-ylsulfonyl)benzamide] | 0.1 to 1 µM | 0.1 to 1 µM | F (<3)
COC[C@H]1CN(c2cc(C)c3c4c(c(=O)oc3c2)CN(C(=O)c2ccc(C(=O)NS(=O)(=O)N3CCCC3)c(OC3CCC3)c2F)CC4)CCN1C [Example 186, (R)-2-cyclobutoxy-3-fluoro-4-(8-(3-(methoxymethyl)-4-methylpiperazin-1-yl)-10-methyl-5-oxo-1,3,4,5-tetrahydro-2H-chromeno[3,4-c]pyridine-3-carbonyl)-N-(pyrrolidin-1-ylsulfonyl)benzamide] | 0.1 to 1 µM | 0.1 to 1 µM | F (<3)
COC[C@H]1CN(c2ccc3c4c(c(=O)oc3c2C)CN(C(=O)c2ccc(C(=O)NS(=O)(=O)C3(C)CC3)c(OC3CCC3)c2F)CC4)CCN1C [Example 42, (R)-2-cyclobutoxy-3-fluoro-4-(8-(3-(methoxymethyl)-4-methylpiperazin-1-yl)-7-methyl-5-oxo-1,3,4,5-tetrahydro-2H-chromeno[3,4-c]pyridine-3-carbonyl)-N-((1-methylcyclopropyl)sulfonyl)benzamide] | 0.001 to 0.01 µM | 0.001 to 0.01 µM | G (^ 3 to 9.0)
CCOc1c(C(=O)NS(=O)(=O)N2C3CCC2CC3)ccc(C(=O)N2CCc3c(c(=O)oc4c(Cl)c(N5CCN(C)[C@@H](COC)C5)ccc34)C2)c1F [Example 209, (R)-N-((7-azabicyclo[2.2.1]heptan-7-yl)sulfonyl)-4-(7-chloro-8-(3-(methoxymethyl)-4-methylpiperazin-1-yl)-5-oxo-1,3,4,5-tetrahydro-2H-chromeno[3,4-c]pyridine-3-carbonyl)-2-ethoxy-3-fluorobenzamide] | 0.01 to 0.1 µM | 0.01 to 0.1 µM | F (<3)
